Compound	melting point
O=C1CC(N2C=Nc3c(Cl)cc(Cl)cc3C2)C(=O)N1 (centres unmarked) [Example 8e, 3-(6,8-dichloro-4H-quinazolin-3-yl)-pyrrolidine-2,5-dione]	230 to 232 °C
O=C1CC(N2C=Nc3ccc([N+](=O)[O-])cc3C2)C(=O)N1 (centres unmarked) [Example 8f, 3-(6-nitro-4H-quinazolin-3-yl)-pyrrolidine-2,5-dione]	168 to 172 °C
O=C1CC(N2C=Nc3cc([N+](=O)[O-])ccc3C2)C(=O)N1 (centres unmarked) [Example 8h, 3-(7-nitro-4H-quinazolin-3-yl)-pyrrolidine-2,5-dione]	212 to 225 °C
Cc1cc(Br)c2c(c1)CN(C1CC(=O)NC1=O)C=N2 (centres unmarked) [Example 8i, 3-(8-bromo-6-methyl-4H-quinazolin-3-yl)-pyrrolidine-2,5-dione]	240 to 241 °C
O=C1CC(N2C=Nc3c(Cl)cccc3C2)C(=O)N1 (centres unmarked) [Example 8j, 3-(8-chloro-4H-quinazolin-3-yl)-pyrrolidine-2,5-dione]	194 °C
COc1cccc2c1N=CN(C1CC(=O)NC1=O)C2 (centres unmarked) [Example 8k, 3-(8-methoxy-4H-quinazolin-3-yl)-pyrrolidine-2,5-dione]	195 to 200 °C
O=C1CC(N2C=Nc3ccc(OCc4ccccc4)cc3C2)C(=O)N1 (centres unmarked) [Example 8l, 3-(6-benzyloxy-4H-quinazolin-3-yl)-pyrrolidine-2,5-dione]	171 to 173 °C
O=C1CC(N2C=Nc3ccc(Cl)c(Cl)c3C2)C(=O)N1 (centres unmarked) [Example 9a, 3-(5,6-dichloro-4H-quinazolin-3-yl)-pyrrolidine-2,5-dione]	174 to 178 °C
COc1cc2c(cc1OC)N=CN(C1CC(=O)NC1=O)C2 (centres unmarked) [Example 10b, 3-(6,7-dimethoxy-4H-quinazolin-3-yl)-pyrrolidine-2,5-dione]	189 to 200 °C
O=C1CC(N2C=Nc3c(cccc3C(F)(F)F)C2)C(=O)N1 (centres unmarked) [Example 11c, 3-(8-trifluoromethyl-4H-quinazolin-3-yl)-pyrrolidine-2,5-dione]	188 to 190 °C
CN1C(=O)CC(N2C=Nc3ccccc3C2)C1=O (centres unmarked) [Example 11d, 1-methyl-3-(4H-quinazolin-3-yl)-pyrrolidine-2,5-dione]	163 to 164 °C
CN1C(=O)CC(N2C=Nc3cc(F)ccc3C2)C1=O (centres unmarked) [Example 11e, 7-fluoro-1-methyl-3-(4H-quinazolin-3-yl)-pyrrolidine-2,5-dione]	191 to 193 °C
CCOc1cccc2c1CN(C1CC(=O)NC1=O)C=N2 (centres unmarked) [Example 12b, 3-(5-ethoxy-4H-quinazolin-3-yl)-pyrrolidine-2,5-dione]	203 to 205 °C
CCCCCOc1cccc2c1CN(C1CC(=O)NC1=O)C=N2 (centres unmarked) [Example 12c, 3-(5-pentyloxy-4H-quinazolin-3-yl)-pyrrolidine-2,5-dione]	154 to 160 °C
O=C1CC(N2C=Nc3cccc(OCc4ccccc4)c3C2)C(=O)N1 (centres unmarked) [Example 12d, 3-(5-benzyloxy-4H-quinazolin-3-yl)-pyrrolidine-2,5-dione]	100 to 108 °C
CC(C)Oc1cccc2c1CN(C1CC(=O)NC1=O)C=N2 (centres unmarked) [Example 12e, 3-(5-isopropoxy-4H-quinazolin-3-yl)-pyrrolidine-2,5-dione]	191 to 192 °C
COCCOc1cccc2c1CN(C1CC(=O)NC1=O)C=N2 (centres unmarked) [Example 12f, 3-(5-(2-methoxyethoxy)-4H-quinazolin-3-yl)-pyrrolidine-2,5-dione]	288 to 290 °C
CC1=Nc2cc(C(F)(F)F)ccc2CN1C1CC(=O)NC1=O (centres unmarked) [Example 15aa, 3-(2-methyl-7-trifluoromethyl-4H-quinazolin-3-yl)-pyrrolidine-2,5-dione]	205 to 206 °C

Compound	melting point
CC1=Nc2ccc(Cl)c(Cl)c2CN1C1CC(=O)NC1=O (centres unmarked) [Example 15c, 3-(5,6-dichloro-2-methyl-4H-quinazolin-3-yl)-pyrrolidine-2,5-dione]	161 to 166 °C
CC1=Nc2cc(Cl)cc(Cl)c2CN1C1CC(=O)NC1=O (centres unmarked) [Example 15d, 3-(5,7-dichloro-2-methyl-4H-quinazolin-3-yl)-pyrrolidine-2,5-dione]	199 to 201 °C
CC1=Nc2cc([N+](=O)[O-])ccc2CN1C1CC(=O)NC1=O (centres unmarked) [Example 15ee, 3-(2-methyl-7-nitro-4H-quinazolin-3-yl)-pyrrolidine-2,5-dione]	203 to 210 °C
CC1=Nc2c(Cl)ccc(Cl)c2CN1C1CC(=O)NC1=O (centres unmarked) [Example 15f, 3-(5,8-dichloro-2-methyl-4H-quinazolin-3-yl)-pyrrolidine-2,5-dione]	186 to 191 °C
CC1=Nc2c(Br)cc(C)cc2CN1C1CC(=O)NC1=O (centres unmarked) [Example 15ff, 3-(8-bromo-2,6-dimethyl-4H-quinazolin-3-yl)-pyrrolidine-2,5-dione]	145 to 150 °C
CC1=Nc2c(Cl)cccc2CN1C1CC(=O)NC1=O (centres unmarked) [Example 15hh, 3-(8-chloro-2-methyl-4H-quinazolin-3-yl)-pyrrolidine-2,5-dione]	176 to 178 °C
CCOc1cccc2c1CN(C1CC(=O)NC1=O)C(C)=N2 (centres unmarked) [Example 15k, 3-(5-ethoxy-2-methyl-4H-quinazolin-3-yl)-pyrrolidine-2,5-dione]	130 to 133 °C
CC1=Nc2cccc(OC(C)C)c2CN1C1CC(=O)NC1=O (centres unmarked) [Example 15m, 3-(5-isopropoxy-2-methyl-4H-quinazolin-3-yl)-pyrrolidine-2,5-dione]	116 to 119 °C
CC1=Nc2cccc(C)c2CN1C1CC(=O)NC1=O (centres unmarked) [Example 15n, 3-(2,5-dimethyl-4H-quinazolin-3-yl)-pyrrolidine-2,5-dione]	200 to 201 °C
COc1cccc2c1CN(C1CC(=O)NC1=O)C(C)=N2 (centres unmarked) [Example 15o, 3-(5-methoxy-2-methyl-4H-quinazolin-3-yl)-pyrrolidine-2,5-dione]	122 °C
CC1=Nc2cccc([N+](=O)[O-])c2CN1C1CC(=O)NC1=O (centres unmarked) [Example 15p, 3-(2-methyl-5-nitro-4H-quinazolin-3-yl)-pyrrolidine-2,5-dione]	> 260 °C (dec.)
CCCCCOc1cccc2c1CN(C1CC(=O)NC1=O)C(C)=N2 (centres unmarked) [Example 15q, 3-(2-methyl-5-pentyloxy-4H-quinazolin-3-yl)-pyrrolidine-2,5-dione]	154 to 156 °C
CC1=Nc2cc3ccccc3cc2CN1C1CC(=O)NC1=O (centres unmarked) [Example 15t, 3-(2-methyl-4H-benzo[g]quinazolin-3-yl)-pyrrolidine-2,5-dione]	106 to 110 °C
COc1cc2c(cc1OC)N=C(C)N(C1CC(=O)NC1=O)C2 (centres unmarked) [Example 15v, 3-(6,7-dimethoxy-2-methyl-4H-quinazolin-3-yl)-pyrrolidine-2,5-dione]	200 to 202 °C
CC1=Nc2c(Cl)cc(Cl)cc2CN1C1CC(=O)NC1=O (centres unmarked) [Example 15w, 3-(6,8-dichloro-2-methyl-4H-quinazolin-3-yl)-pyrrolidine-2,5-dione]	180 to 182 °C
CC1=Nc2ccc(OCc3ccccc3)cc2CN1C1CC(=O)NC1=O (centres unmarked) [Example 15x, 3-(6-benzyloxy-2-methyl-4H-quinazolin-3-yl)-pyrrolidine-2,5-dione]	132 to 143 °C
CC1=Nc2ccc(Cl)cc2CN1C1CC(=O)NC1=O (centres unmarked) [Example 15y, 3-(6-chloro-2-methyl-4H-quinazolin-3-yl)-pyrrolidine-2,5-dione]	195 to 203 °C
